The subject of one data set is Escherichia coli. The experiment in a line: Antimicrobial activity against uropathogenic Escherichia coli infected in chronic mouse cystitis model assessed as reduction in bacterial levels at 100 mg/kg, po administered as single dose relative to untreated control. The data set is classed as functional.
Data set [1] is described as follows: Stability in mouse urinary bladder assessed as unchanged drug level at 100 mg/kg, po. The data set is classed as ADME, organism-based. To be noted: in vivo.
In data set [2] the test system is Mus musculus. The experiment in a line: Time duration maintaining effective drug urine level in mouse at 10 mg/kg, ip. The data set is classed as ADME, organism-based. Conditions: in vivo.
In data set [3] the test system is Mus musculus. The experiment in a line: Time duration maintaining >10 mM urine level in mouse at 50 mg/kg, po. Conditions: in vivo. The data set is classed as ADME, organism-based.
A short description of data set [4]: Binding affinity to Pseudomonas aeruginosa LecA.
A short description of data set [5]: Binding affinity to Pseudomonas aeruginosa LecB.
Data set [6] can be described thus: Inhibition of Pseudomonas aeruginosa LecA by ELISA method. In general terms: ELISA stands for enzyme-linked immunosorbent assay.
A further data set deals with Streptococcus suis. The experiment in a line: […] of Streptococcus suis by hemagglutination inhibition assay. The format is functional, organism-based.

Consider 20 molecules from ChEMBL document CHEMBL3588834, “Towards bacterial adhesion-based therapeutics and detection methods” (Medchemcomm, 2014).

Consider `CNC(=O)c1cc(C(=O)NC)cc(-c2ccc(O[C@H]3O[C@H](CO)[C@@H](O)[C@H](O)[C@@H]3O)cc2)c1`, for which the “fold change (FC)” value in the data set on Escherichia coli worked out at 3. Also, the Stability in data set [1] is > 95%. For the same molecule, the Time in the data set with Mus musculus [2] is 8 h.

Take `CNC(=O)c1cc(C(=O)NC)cc(-c2ccc(O[C@H]3O[C@H](CO)[C@@H](O)[C@H](O)[C@@H]3O)c(C)c2)c1`: the Time in the data set on Mus musculus [3] is 6 h.

Broadly, the Kd is the concentration at which binding is half-saturated. Read a high Kd as a looser complex. In the case of `CC(C)C[C@H](NC(=O)[C@@H]1CCCN1C(=O)[C@H](CCCCN)NC(=O)c1ccc(O[C@@H]2O[C@H](CO)[C@H](O)[C@H](O)[C@H]2O)cc1)C(N)=O`, the Kd in data set [4] is 4200 nM.

`[N-]=[N+]=NCC(=O)Nc1ccc(O[C@@H]2O[C@H](CO)[C@H](O)[C@H](O)[C@H]2O)cc1` yielded a Kd in data set [4] of 5800 nM.

Consider `OC[C@H]1O[C@@H](Oc2ccc3ccccc3c2)[C@H](O)[C@@H](O)[C@H]1O`, for which the Kd in data set [4] is 4200 nM.

In data set [5], `COC(=O)c1cn([C@@H]2O[C@H](CO)[C@@H](O[C@@H]3O[C@H](C)[C@@H](O)[C@@H](O)[C@@H]3O)[C@H](O)[C@H]2NC(C)=O)nn1` came in with a Kd of 290 nM. This counts as sub-micromolar.

`CO[C@H]1O[C@H](CNS(=O)(=O)c2c(C)cc(C)cc2C)[C@@H](O)[C@H](O)[C@@H]1O` displayed a Kd in data set [5] of 3300 nM.

`CC(C)(C)c1cc2c(Oc3cn(CC(=O)NCCOCCO[C@@H]4O[C@H](CO)[C@H](O)[C@H](O)[C@H]4O)nn3)c(c1)Cc1cc(C(C)(C)C)cc(c1Oc1cn(CC(=O)NCCOCCO[C@@H]3O[C@H](CO)[C@H](O)[C@H](O)[C@H]3O)nn1)Cc1cc(C(C)(C)C)cc(c1Oc1cn(CC(=O)NCCOCCO[C@@H]3O[C@H](CO)[C@H](O)[C@H](O)[C@H]3O)nn1)Cc1cc(C(C)(C)C)cc(c1Oc1cn(CC(=O)NCCOCCO[C@@H]3O[C@H](CO)[C@H](O)[C@H](O)[C@H]3O)nn1)C2` came in with a dissociation constant (Kd) in data set [4] of 90 nM.

Turning to `O=C(Cn1cc(CCC(=O)N[C@H]2[C@@H]3OC[C@H]4O[C@@H](OC[C@H]5O[C@@H](OC[C@H]6O[C@@H](OC[C@@H](O3)[C@@H](O)[C@@H]2O)[C@H](NC(=O)CCc2cn(CC(=O)Nc3ccc(O[C@@H]7O[C@H](CO)[C@H](O)[C@H](O)[C@H]7O)cc3)nn2)[C@@H](O)[C@@H]6O)[C@H](NC(=O)CCc2cn(CC(=O)Nc3ccc(O[C@@H]6O[C@H](CO)[C@H](O)[C@H](O)[C@H]6O)cc3)nn2)[C@@H](O)[C@@H]5O)[C@H](NC(=O)CCc2cn(CC(=O)Nc3ccc(O[C@@H]5O[C@H](CO)[C@@H](O)[C@H](O)[C@H]5O)cc3)nn2)[C@@H](O)[C@@H]4O)nn1)Nc1ccc(O[C@@H]2O[C@H](CO)[C@@H](O)[C@H](O)[C@H]2O)cc1`, binding in data set [4] was put at a Kd of 79 nM.

As usually defined, the IC50 is the concentration at which inhibition is half-maximal. Read a low IC50 as higher potency. `OC[C@H]1O[C@@H](OCc2cn([C@H]3[C@H](O)[C@@H](O)[C@H](n4cc([C@@H]5O[C@H](CO)[C@@H](n6cc(CO[C@@H]7O[C@H](CO)[C@H](O)[C@H](O)[C@H]7O)nn6)[C@H](O)[C@H]5O)nn4)O[C@@H]3CO)nn2)[C@H](O)[C@@H](O)[C@H]1O`: in data set [6], it took 3500 nM to reach half-maximal inhibition (IC50).

For `OC[C@H]1O[C@@H](OCc2cn([C@H]3[C@H](O)[C@@H](O)[C@H](c4cn([C@H]5[C@H](O)[C@@H](O)[C@H](n6cc([C@@H]7O[C@H](CO)[C@@H](n8cc([C@@H]9O[C@H](CO)[C@@H](n%10cc(CO[C@@H]%11O[C@H](CO)[C@H](O)[C@H](O)[C@H]%11O)nn%10)[C@H](O)[C@H]9O)nn8)[C@H](O)[C@H]7O)nn6)O[C@@H]5CO)nn4)O[C@@H]3CO)nn2)[C@H](O)[C@@H](O)[C@H]1O`, the IC50 in data set [6] amounted to 840 nM.

For `COc1ccc(O[C@@H]2O[C@H](CO)[C@H](O[C@H]3O[C@H](CO)[C@H](O)[C@H](NC(=O)Nc4ccccc4)[C@H]3O)[C@H](O)[C@H]2O)cc1`, in the data set with Streptococcus suis, the IC50 is 30 nM.

Regarding `COCO[C@H]1[C@@H](O[C@@H]2[C@H](O)[C@@H](O)[C@H](Oc3ccc(OC)cc3)O[C@@H]2CO)O[C@H](CO)[C@H](O)[C@@H]1O`, the half-inhibitory concentration (IC50) with Streptococcus suis came out at 50 nM.

On to `O=C(CCSCC(CSCCC(=O)NCCO[C@@H]1O[C@H](CO)[C@H](O[C@H]2O[C@H](CO)[C@H](O)[C@H](O)[C@H]2O)[C@H](O)[C@H]1O)(CSCCC(=O)NCCO[C@@H]1O[C@H](CO)[C@H](O[C@H]2O[C@H](CO)[C@H](O)[C@H](O)[C@H]2O)[C@H](O)[C@H]1O)CSCCC(=O)NCCO[C@@H]1O[C@H](CO)[C@H](O[C@H]2O[C@H](CO)[C@H](O)[C@H](O)[C@H]2O)[C@H](O)[C@H]1O)NCCO[C@@H]1O[C@H](CO)[C@H](O[C@H]2O[C@H](CO)[C@H](O)[C@H](O)[C@H]2O)[C@H](O)[C@H]1O`, for which, in the data set with Streptococcus suis, the IC50 worked out at 2 nM.

As to `COC(=O)c1cc(OCCNC(=O)c2cc(OCCNC(=O)COCC(=O)NCCO[C@@H]3O[C@H](CO)[C@H](O[C@H]4O[C@H](CO)[C@H](O)[C@H](O)[C@H]4O)[C@H](O)[C@H]3O)cc(OCCNC(=O)COCC(=O)NCCO[C@@H]3O[C@H](CO)[C@H](O[C@H]4O[C@H](CO)[C@H](O)[C@H](O)[C@H]4O)[C@H](O)[C@H]3O)c2)cc(OCCNC(=O)c2cc(OCCNC(=O)COCC(=O)NCCO[C@@H]3O[C@H](CO)[C@H](O[C@H]4O[C@H](CO)[C@H](O)[C@H](O)[C@H]4O)[C@H](O)[C@H]3O)cc(OCCNC(=O)COCC(=O)NCCO[C@@H]3O[C@H](CO)[C@H](O[C@H]4O[C@H](CO)[C@H](O)[C@H](O)[C@H]4O)[C@H](O)[C@H]3O)c2)c1`, in the data set with Streptococcus suis, half-maximal inhibition (IC50) was put at 0.3 nM.

For `COc1ccc(O[C@@H]2O[C@H](CO)[C@H](O[C@H]3O[C@H](CO)[C@H](O)[C@H](O)[C@H]3O)[C@H](O)[C@H]2O)cc1`, in the data set on Streptococcus suis, the IC50 came to 310 nM.

Regarding `OC[C@H]1O[C@@H](Sc2ccc3ccccc3c2)[C@H](O)[C@@H](O)[C@H]1O`, binding in data set [4] was put at a Kd of 6300 nM. This counts as single-digit micromolar.

As for `CC(=O)N[C@H]1C(O)O[C@H](CO)[C@@H](O[C@@H]2O[C@@H](C)[C@@H](O)[C@@H](O)[C@@H]2O)[C@@H]1O[C@@H]1O[C@H](CO)[C@H](O)[C@H](O)[C@H]1O` (stereo partly drawn), binding in data set [5] was put at a Kd of 210 nM.

`OC[C@H]1O[C@@H](OCc2cn([C@H]3[C@H](O)[C@@H](O)[C@H](c4cn([C@H]5[C@H](O)[C@@H](O)[C@H](n6cc([C@@H]7O[C@H](CO)[C@@H](n8cc(CO[C@@H]9O[C@H](CO)[C@H](O)[C@H](O)[C@H]9O)nn8)[C@H](O)[C@H]7O)nn6)O[C@@H]5CO)nn4)O[C@@H]3CO)nn2)[C@H](O)[C@@H](O)[C@H]1O` came in with an IC50 in data set [6] of 2.7 nM. This molecule also displayed a Kd in data set [4] of 28 nM.

Turning to `O=C[C@H](O)[C@@H](O)[C@@H](O)[C@H](O)CO` [GALACTOSE], binding in data set [4] was characterised by a dissociation constant (Kd) of 87500 nM. This counts as double-digit micromolar.
